Entries after “also recorded” stand apart in the source; their conditions may differ.
Columns and labels:
tumor cell lines = details: variety of tumor cell lines; cited from earlier work
[1] = tested on: Human non-small cell lung carcinoma cells, A549; test: Cytotoxicity by counting cells after 72 h, Taxol-sensitive cells; type: cell-based
Procedure: Taxol-resistant and sensitive cell lines were seeded into 12-well plates at a density of 5×10^4 cells per well and allowed a period of 12 h for attachment prior to treatment. […] Cells were then trypsinized and counted (Coulter counter model ZF0031, Coulter Corp., Miami, Fla.).

microtubule protein = test: Stability of microtubules against Ca++-induced depolymerization; type: biochemical, calf; details: 10 mM CaCl2
Procedure: Eleutherobin and its derivatives were synthesized as described (18,19). Taxol was obtained from the Drug Development Branch, National Cancer Institute (Bethesda, Md.). All compounds were dissolved in dimethyl sulfoxide (Sigma Chemical Co., St. Louis, Mo.) at stock concentrations of 5 mM and stored at -20° C. All control samples contained an equal volume of DMSO. GTP was obtained from Sigma Chemical Co. And dissolved in sterile distilled water at a concentration of 10 mM and stored at -20° C. Microtubule protein was purified from calf brains by two cycles of temperature-dependent assembly and disassembly (20) and stored in liquid nitrogen prior to use. The anti-mouse β-tubulin monoclonal antibody T-4026 was obtained from Sigma Chemical Co.
The ability of each compound to polymerize tubulin was evaluated by recording the change in turbidity of microtubule protein at 350 nm for 80 min in a spectrophotometer (UVIKON, Research Instruments Int., SD, Calif.). One mg of purified microtubule protein was diluted in assembly buffer containing 0.1 M MES, 1 mM EGTA, 0.5 mM MgCl2 and 3 M glycerol, pH 6.6. All compounds were evaluated at a concentration of 10 μM at 37° C. GTP was used at a final concentration of 1 mM. Microtubule stability was assessed by the addition of 10 mM Ca^++. changes from t=0-10 min were used to calculate initial slopes from the linear portion of each curve. These values were used to calculate the activity of each compound (relative to the activity of Taxol which was assigned a value of 100%).
The ability of each compound to polymerize and/or stabilize microtubules was assessed (FIG. 7). To investigate whether eleutherobin and its derivatives shared the microtubule stabilizing properties of Taxol, 10 mM CaCl2 was added to each sample after maximum microtubule polymerization occurred, and the effects on turbidity recorded spectrophotometrically. A positive control was included in which 1 mM GTP was used to confirm the ability of GTP-stabilized microtubules to undergo Ca^++ induced depolymerization.
The ability of this compound to stabilize microtubules formed in the presence of GTP was examined. After a period of 15 min, 10 mM Ca^++ was added and the change in turbidity recorded.

[2] = tested on: MDR1 expressing cell line derived from human colon carcinoma HCT 116 cells; details: cited from earlier work
[3] = tested on: SKVBL (MDR variant of SKOV3); test: Cytotoxicity by counting cells after 72 h, MDR variant cells; type: cell-based, human
Procedure: Human non-small cell lung carcinoma cells, A549, were maintained in RPMI 1640 containing 10% fetal bovine serum and 1% penicillin-streptomycin (Gibco Laboratories, Grand Island N.Y.) at 37° C. in 7% CO2. The Taxol-resistant cell line A549-T12 was selected for resistance to Taxol and maintained in a final concentration of 12 nM drug (21). Human ovarian carcinoma cells SKOV3 and the MDR variant SKVBL (obtained from Dr. V. Ling) were maintained in α-mem plus ribonucleotides, deoxynucleotides, 15% fetal bovine serum and 1% penicillin-streptomycin (Gibco Laboratories) at 37° C. in 5% CO2. SKVBL cells were maintained in […] vinblastine (Sigma Chemical Co.).
Taxol-resistant and sensitive cell lines were seeded into 12-well plates at a density of 5×10^4 cells per well and allowed a period of 12 h for attachment prior to treatment. Cells were exposed to 10-fold serial dilutions of each compound (10^-10 to 10^-6 M) for 72 h. Cells were then trypsinized and counted (Coulter counter model ZF0031, Coulter Corp., Miami, Fla.). The IC50 was determined by plotting cell number against log of the drug concentration and this was used to determine the concentration of compound resulting in 50% growth inhibition compared to untreated cells. Each cell line was assayed in a minimum of 3 independent experiments with each compound and the results expressed as the mean IC50.
The cytotoxic efficacy of eleutherobin and its derivatives (FIG. 6) was evaluated in two drug sensitive human cancer cell lines and their Taxol-resistant counterparts. The results are summarized in Table I in order of decreasing potency. […] The Taxol-resistant cell line SKVBL overexpresses high levels of P-glycoprotein (22). […] The only difference between the two agents is the enantiomeric relationship in the carbohydrate (2'-acetylarabinose) sector (FIG. 6). […] This cell line expressed high levels of MDR1 resulting in Taxol-resistance equal or greater than 1666 -fold compared to the Taxol-sensitive SKOV3 cell line.
^a Cytotoxicity determined by counting cells after 72 h drug exposure.

[4] = tested on: cellular microtubules, NIH 3T3 cells; test: Microtubule bundle formation by immunofluorescence; type: cell-based; details: 2 μM, 5.5 h
Procedure: FIG. 9 immunofluorescence images NIH3T3 cells labeled with β-tubulin antibody following exposure to different drugs. A)DMSO; B)2 μM Taxol; C)2 μM eleutherobin; D)2 μM neo-eleutherobin; E)2 μM SKBII.294; F)2 μM SKBIII.13.
Illustrates the effects of eleutherobin and its derivatives on the morphology of cellular microtubules following exposure of cells to 2 μM of each compound for 5.5 h at 37° C. […] The number of micotic asters correlated with the extent of microtubule bundling in interphase cells.
NIH 3T3 cells were grown to subconfluency on glass converslips in 35 mm plastic petri dishes. Cells were exposed to 2 μM of Taxol and each of the experimental compounds for 5.5 h at 37° C., rinsed twice in PBS and extracted with 0.5% Triton-X-100 in microtubule stabilizing buffer (PEM) (100 mM PIPES, 2 mM EGTA and 2 mM MgCl2, pH 6.8) for 4 min. Following a wash in PEM, the cells were fixed for 40 min at room temperature in 3% formaldehyde in PEM followed by incubation in 0.1 M glycine in PBS for 10 min and washing (four times) in PEM containing 5 μM EGTA. Following blocking in 20% normal goat serum (NGS) for 30 min at room temperature, cells were incubated for 1 h at 37° C. with a 1:100 dilution of β-tubulin mAb diluted in 10% NGS, washed twice in 1% BSA, once in PBS and three times in 1% BSA. Cells were then incubated in a 1:200 dilution of the secondary fluorophore antibody, IndocarbocyanineCY3 (Jackson Immunoresearch Laboratories Inc., Pa.) in 20% NGS for 20 min at room temperature. Finally cells were washed three times in 1% BSA and the dried slides mounted in 30% glycerol in PBS containing […]-phenylene diamine (1 mg/ml). Fixed slides were examined using a Zeiss Axioskop microscope.

SMILES: CO[C@]12C=C[C@](C)(O1)[C@@H](OC(=O)/C=C/c1cn(C)cn1)C[C@H]1C(C)=CC[C@H](C(C)C)[C@H]1/C=C\2CO[C@@H]1OC[C@@H](O)[C@@H](O)[C@@H]1OC(C)=O [Eleutherobin]
- potency in tumor cell lines (in words) (tumor cell lines): excellent potency in a variety of tumor cell lines
- IC50 ([1]; Homo sapiens, A549, 72 h): 6 nM
- fold less potent than Taxol ([1]; both sensitive cell lines (A549, SKOV3)): 3 fold
- cytotoxicity (in words) ([1]; sensitive cell lines (A549, SKOV3)): IC50 value comparable at Taxol; also recorded: within the nM range
- stabilization against Ca++-induced depolymerization (in words) (microtubule protein): stabilized microtubules against Ca^++ -induced depolymerization
- cross-resistance in MDR1 expressing HCT 116-derived cells (in words) [2]: demonstrated cross-resistance in an MDR1 expressing cell line
- IC50 ([3]; Homo sapiens, SK-OV-3, Ovarian Carcinoma SKOV3, Resistant (SKVBL), 72 h, mean of at least three independent experiments): > 1000 nM
- cross-resistance in SKVBL (in words) ([3]; MDR1 expressing cells, high P-glycoprotein): exhibited cross-resistance in an MDR1 expressing cell line; also recorded: demonstrated cross-resistance
- fold resistance relative to the parental cell line ([3]; SKVBL vs SKOV3): ≥ 1052 fold
- microtubule bundle formation (in words) ([4]; 37 °C): extensive microtubule bundling
- multiple asters in mitotic cells ([4]; data not shown): also seen in eleutherobin and neo-eleutherobin-treated cells

Reference: patent publication US6172205A, “Synthetic process toward total synthesis of eleutherobin and its analogues and uses thereof” (The Trustees of Columbia in the City of New York, priority 1998, dated 2001)
